According to the NIST ThermoML archive (doi:10.1021/acs.jced.8b00067):
Values joined by “and” are separate entries in the source; they are usually repeats but may differ in a detail not shown here. Identical values can stand only once.

Tests used:
[1] = 101.3 kPa, Liquid, Vibrating tube method
[2] = xn = mol fraction of the nth substance listed; conditions: 101.3 kPa, Liquid, Vibrating tube method

ClCCCl [1,2-dichloroethane]
[1]
Conditions	mass density
288.15 K	1260.35 kg/m3
298.15 K	1245.75 kg/m3 and 1245.76 kg/m3
308.15 K	1231.16 kg/m3
318.15 K	1216.56 kg/m3

ClCCCl [1,2-dichloroethane] + C1COCCO1
mass density [kg/m3], [2]
Conditions	288.15 K	298.15 K	308.15 K	318.15 K
x2 = 0	1260.35	1245.75	1231.16	1216.56
x2 = 0.05	1247.73	1233.53	1219.2	1204.74
x2 = 0.15	1223.15	1209.44	1195.6	1181.63
x2 = 0.25	1199.18	1185.91	1172.52	1159.01
x2 = 0.35	1175.98	1163.09	1150.11	1137.01
x2 = 0.45	1153.2	1140.69	1128.08	1115.36
x2 = 0.5	1142.13	1129.79	1117.34	1104.79
x2 = 0.55	1131.22	1119.02	1106.74	1094.34
x2 = 0.65	1109.63	1097.72	1085.72	1073.62
x2 = 0.75	1088.81	1077.13	1065.38	1053.55
x2 = 0.85	1068.59	1057.12	1045.59	1033.98
x2 = 0.95	1048.8	1037.49	1026.13	1014.72

ClCCCl [1,2-dichloroethane] + CC(C)O
mass density [kg/m3], [2]
Conditions	288.15 K	298.15 K	308.15 K	318.15 K
x2 = 0	1260.35	1245.75	1231.16	1216.56
x2 = 0.05	1235.77	1221.42	1206.94	1192.32
x2 = 0.15	1188.35	1174.26	1160	1145.58
x2 = 0.25	1141.45	1127.77	1113.89	1099.81
x2 = 0.35	1094.84	1081.66	1068.25	1054.61
x2 = 0.45	1048.69	1036.08	1023.22	1010.09
x2 = 0.5	1025.43	1013.12	1000.56	987.72
x2 = 0.55	1001.94	989.96	977.71	965.17
x2 = 0.65	955.61	944.31	932.73	920.85
x2 = 0.75	908.94	898.38	887.54	876.36
x2 = 0.849	862.18	852.45	842.41	832.03
x2 = 0.949	814.66	805.84	796.72	787.26
x2 = 0.95	814.18	805.36	796.25	786.79

ClCCCl [1,2-dichloroethane] + CCCO
mass density, [2]
Conditions	288.15 K	298.15 K	308.15 K	318.15 K
x2 = 0	1260.35 kg/m3	1245.75 kg/m3	1231.16 kg/m3	1216.56 kg/m3
x2 = 0.026	1248.39 kg/m3	1234.01 kg/m3	1219.5 kg/m3	1204.86 kg/m3
x2 = 0.05	1237.53 kg/m3 and 1237.37 kg/m3	1223.22 kg/m3 and 1223.08 kg/m3	1208.79 kg/m3 and 1208.64 kg/m3	1194.22 kg/m3 and 1194.08 kg/m3
x2 = 0.1	1215.38 kg/m3	1201.26 kg/m3	1187.01 kg/m3	1172.6 kg/m3
x2 = 0.122	1205.69 kg/m3	1191.67 kg/m3	1177.5 kg/m3	1163.18 kg/m3
x2 = 0.149	1193.33 kg/m3	1179.47 kg/m3	1165.44 kg/m3	1151.24 kg/m3
x2 = 0.25	1149.08 kg/m3	1135.78 kg/m3	1122.28 kg/m3	1108.59 kg/m3
x2 = 0.35	1104.87 kg/m3	1092.18 kg/m3	1079.29 kg/m3	1066.19 kg/m3
x2 = 0.45	1060.3 kg/m3	1048.27 kg/m3	1036.04 kg/m3	1023.57 kg/m3
x2 = 0.55	1015.43 kg/m3	1004.09 kg/m3	992.55 kg/m3	980.78 kg/m3
x2 = 0.645	972.3 kg/m3	961.66 kg/m3	950.81 kg/m3	939.73 kg/m3
x2 = 0.75	924.58 kg/m3	914.71 kg/m3	904.65 kg/m3	894.38 kg/m3
x2 = 0.85	878.59 kg/m3	869.49 kg/m3	860.21 kg/m3	850.73 kg/m3
x2 = 0.899	855.66 kg/m3	846.93 kg/m3	838.05 kg/m3	828.97 kg/m3
x2 = 0.95	831.69 kg/m3	823.36 kg/m3	814.89 kg/m3	806.24 kg/m3
x2 = 0.974	820.39 kg/m3	812.24 kg/m3	803.95 kg/m3	795.49 kg/m3
x2 = 0.975	819.73 kg/m3	811.6 kg/m3	803.33 kg/m3	794.89 kg/m3
